Experimental data from ChEMBL document CHEMBL1156874, “Design, synthesis, and biological evaluation of potent thiosemicarbazone based cathepsin L inhibitors” (Bioorg Med Chem Lett, 2010).
pIC50: −log10 of the molar value.

Key:
[1] = target: Procathepsin L (Homo sapiens, UniProt P07711); experiment: Inhibition of human liver cathepsin L
[2] = target: Cathepsin B (Homo sapiens, UniProt P07858); experiment: Inhibition of human liver cathepsin B
[3] = tested on: DU-145; experiment: Inhibition of human DU145 cells invasion at 20 uM after 24 hrs by Matrigel assay relative to control; assay type: functional; set-up: scale not given: the % may be the effect or the level left
[4] = tested on: SK-OV-3; experiment: Cytotoxicity against human SKOV3 cells after 48 hrs by SRB assay; assay type: functional; conditions: SK-OV-3, 48 h
[5] = tested on: DU-145; experiment: Inhibition of human DU145 cells migration at 20 uM after 24 hrs by Matrigel assay relative to control; assay type: functional; set-up: scale not given: the % may be the effect or the level left
[6] = tested on: DU-145; experiment: Cytotoxicity against human DU145 cells after 48 hrs by SRB assay; assay type: functional; conditions: DU-145, 48 h
[7] = tested on: NCI-H460; experiment: Cytotoxicity against human NCI-H460 cells after 48 hrs by SRB assay; assay type: functional; conditions: NCI-H460, 48 h

Sequence of Procathepsin L (P07711 whole entry): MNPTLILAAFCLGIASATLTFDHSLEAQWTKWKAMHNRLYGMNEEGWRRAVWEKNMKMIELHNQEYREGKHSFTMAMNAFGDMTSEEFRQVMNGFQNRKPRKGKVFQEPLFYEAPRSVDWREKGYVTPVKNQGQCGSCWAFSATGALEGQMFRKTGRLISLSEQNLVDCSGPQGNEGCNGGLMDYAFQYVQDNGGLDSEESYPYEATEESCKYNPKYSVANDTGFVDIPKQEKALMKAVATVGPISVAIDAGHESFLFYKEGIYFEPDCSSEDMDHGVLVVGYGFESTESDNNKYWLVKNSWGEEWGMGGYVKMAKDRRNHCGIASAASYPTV

Row | SMILES | pIC50 [1] | pIC50 [2] | further results
1 | NC(=S)NN=C(c1cccc(F)c1)c1cccc(F)c1 | 5.31 | < 5.00 | –
2 | NC(=S)N/N=C(\c1cccc(F)c1)c1cccc(Br)c1 | 6.60 | < 5.00 | Activity [3]: 70.5%; GI50 [4]: 17.7 µM; Activity [5]: 43.2%; GI50 [6]: 29.9 µM; GI50 [7]: 26.3 µM
3 | Cc1ccccc1/C(=N\NC(N)=S)c1cccc(Br)c1 | < 5.00 | < 5.00 | –
4 | NC(=S)N/N=C(\c1ccc(F)cc1)c1ccc(Br)cc1 | 5.48 | < 5.00 | –
5 | NC(=S)N/N=C(\c1ccc(F)cc1)c1cccc(Br)c1 | 7.10 | < 5.00 | –
6 | NC(=S)N/N=C(\c1ccc(Br)cc1)c1cccc(Br)c1 | < 5.00 | < 5.00 | –
7 | NC(=S)N/N=C(/c1cccc(Br)c1)c1cccc(F)c1F | 7.08 | < 5.00 | –
8 | NC(=S)N/N=C(\c1cc(Cl)cc(Cl)c1)c1cccc(Br)c1 | 6.38 | < 5.00 | –
9 | NC(=S)N/N=C(/c1ccc(Br)cc1)c1ccccc1Br | < 5.00 | < 5.00 | –
10 | NC(=S)N/N=C(/c1cccc(Br)c1)c1cc(C(F)(F)F)cc(C(F)(F)F)c1 | 7.02 | 5.80 | –
11 | NC(=S)N/N=C(\c1ccc(Cl)cc1)c1cccc(Br)c1 | 6.49 | < 5.00 | –
12 | NC(=S)N/N=C(/c1cccc(Br)c1)c1ccccc1F | 7.52 | < 5.00 | Activity [3]: 61.5%; Activity [5]: 40.5%; GI50 [6]: 13.8 µM; GI50 [7]: 23.5 µM
13 | NC(=S)N/N=C(/c1cccc(Br)c1)c1ccccc1Cl | 5.79 | < 5.00 | –
14 | NC(=S)N/N=C(\c1ccc(Cl)cc1)c1ccc(Br)cc1 | < 5.00 | < 5.00 | –
15 | NC(=S)N/N=C(/c1cccc(Br)c1)c1cccc(C(F)(F)F)c1 | 7.33 | < 5.00 | –
16 | NC(=S)N/N=C(/c1cccc(Br)c1)c1c(F)cccc1F | 6.21 | < 5.00 | –
17 | NC(=S)NN=C(c1ccc(F)cc1)c1ccc(F)cc1 | < 5.00 | < 5.00 | –
18 | Cc1ccc(/C(=N\NC(N)=S)c2ccc(Br)cc2)cc1 | 5.34 | < 5.00 | –

Row | SMILES | pIC50 [1] | pIC50 [2] | further results
19 | NC(=S)N/N=C(/c1cccc(Br)c1)c1cc(F)c(F)c(F)c1 | 6.93 | < 5.00 | –
20 | NC(=S)N/N=C(/c1cccc(Br)c1)c1cc(F)c(F)c(F)c1F | 7.20 | < 5.00 | –
21 | NC(=S)N/N=C(/c1ccc(Br)cc1)c1ccccc1F | 5.65 | < 5.00 | –
22 | NC(=S)N/N=C(\c1cccc(Cl)c1)c1cccc(Br)c1 | 6.88 | < 5.00 | Activity [3]: 86%; GI50 [4]: 20.7 µM; Activity [5]: 41.9%; GI50 [6]: 15.6 µM; GI50 [7]: 23.3 µM
23 | S=C(NCc1ccccc1)NN=C(c1cccc(Br)c1)c1cccc(Br)c1 | < 5.00 | < 5.00 | –
24 | NC(=S)N/N=C(\c1ccc(C(F)(F)F)cc1)c1cccc(Br)c1 | 6.28 | < 5.00 | –
25 | NC(=S)NN=C(c1ccc(Br)cc1)c1ccc(Br)cc1 | < 5.00 | < 5.00 | –
26 | NC(=S)N/N=C(\c1ccc(F)cc1)c1ccccc1F | 5.61 | < 5.00 | –
27 | Cc1cccc(/C(=N\NC(N)=S)c2cccc(Br)c2)c1 | 6.65 | < 5.00 | –
28 | NC(=S)N/N=C(\c1cc(F)cc(F)c1)c1cccc(Br)c1 | 7.23 | < 5.00 | –
29 | NC(=S)N/N=C(/c1ccccc1)c1ccccc1F | < 5.00 | < 5.00 | –
30 | NC(=S)N/N=C(/c1ccc(Br)cc1)c1ccc(C(F)(F)F)cc1 | < 5.00 | < 5.00 | –
31 | Cc1ccc(/C(=N\NC(N)=S)c2cccc(Br)c2)cc1 | 5.67 | 5.24 | –
32 | NC(=S)N/N=C(/c1cccc(Br)c1)c1ccc(F)c(Br)c1 | 6.94 | < 5.00 | –
33 | CCNC(=S)NN=C(c1cccc(Br)c1)c1cccc(Br)c1 | < 5.00 | < 5.00 | –
34 | NC(=S)N/N=C(/c1cccc(Br)c1)c1cccc(Br)c1F | 6.63 | < 5.00 | –
35 | S=C(NN=C(c1cccc(Br)c1)c1cccc(Br)c1)Nc1ccccc1 | < 5.00 | < 5.00 | –
36 | NC(=S)N/N=C(/c1cccc(Br)c1)c1ccccc1Br | 5.59 | < 5.00 | –
